# Assay results: US7763728B2, “Tetrahydropyridothiophenes” (4SC AG, priority 2005, dated 2010)
# Legend:
# [1] = tested on: RKO colon adenocarcinoma cells (RKOp27) arrested by the expression of ectopic p27Kip1; assay: Alamar Blue cell viability assay on RKOp27 cells arrested by p27Kip1 expression induced by Ponasterone A; type: cell-based; conditions: Homo sapiens, 72 hours incubation, 10 μM Ponasterone A, read-out: IC50 RKO p27 induced (arrested)
# Protocol: To determine the cell cycle specific mode of action, subclones of RKO colon adenocarcinoma cells (RKOp27 or RKOp21 as described by Schmidt et al. in Oncogene 19, 2423-2429; 2000) are seeded into 96 well flat bottom plates at a density of 15000 cells per well in a volume of 50 μl per well in DMEM growth medium with 10% FCS containing 10 μM Ponasterone A. 24 hours after seeding the 50 μl each of the compound dilutions in DMEM medium are added into each well of the 96 Well plate. Each compound dilution is tested as quadruplicates. Wells containing untreated control cells are filled with 50 μl DMEM medium containing 1% DMSO. The cells are then incubated with the substances for 72 hours at 37° C. in a humidified atmosphere containing 5% carbon dioxide. To determine the viability of the cells, 10 μl of an Alamar Blue solution (Biosource) are added and the fluorescence was measured at an extinction of 544 nm and an emission of 590 nm. For the calculation of the cell viability the emission value from untreated cells is set as 100% viability and the emission rates of treated cells are set in relation to the values of untreated cells. Viabilities are expressed as % values. Viability is compared of proliferating cells grown in the absence of the inducer Ponasterone A, versus viability of cells arrested by the expression of ectopic p27Kip1 induced by Ponasterone A.
# [2] = tested on: RKO (RKOp27) human colon adenocarcinoma cells; assay: Alamar Blue cell viability assay, anti-proliferative/cytotoxic activity on proliferating (uninduced) RKOp27 cells; type: cell-based; conditions: 72 hours incubation, absence of the inducer Ponasterone A, read-out: IC50 RKO p27 uninduced (proliferating)
# Protocol: The anti-proliferative/cytotoxic activity of the compounds described herein, can be tested on subclones of RKO (RKOp27) human colon adenocarcinoma cells (Schmidt et al., Oncogene 19, 2423-2429; 2000) using the Alamar Blue cell viability assay (described in O'Brien et al. Eur J Biochem 267, 5421-5426, 2000). The compounds are dissolved as 20 mM solutions in dimethylsulfoxide (DMSO) and subsequently diluted in semi-logarithmic steps. DMSO dilutions are further diluted 1:100 into Dulbecco's modified Eagle's medium (DMEM) containing 10% fetal calf serum to a final concentration twice as much as the final concentration in the test. RKO subclones are seeded into 96 well flat bottom plates at a density of 5000 cells per well in a volume of 50 μl per well. 24 hours after seeding the 50 μl each of the compound dilutions in DMEM medium are added into each well of the 96 Well plate. Each compound dilution is tested as quadruplicates. Wells containing untreated control cells are filled with 50 μl DMEM medium containing 1% DMSO. The cells are then incubated with the substances for 72 hours at 37° C. in a humified atmosphere containing 5% carbon dioxide. To determine the viability of the cells, 10 μl of an Alamar Blue solution (Biosource) are added and the fluorescence is measured at an extinction of 544 nm and an emission of 590 nm. For the calculation of the cell viability the emission value from untreated cells is set as 100% viability and the emission rates of treated cells are set in relation to the values of untreated cells. Viabilities are expressed as % values.
# The corresponding IC50 values of the compounds for anti-proliferative/cytotoxic activity are determined from the concentration-effect curves.
# Representative IC50 values for anti-proliferation/cytotoxicity determined in the mentioned assay follow from the following table A, in which the numbers of the compounds correspond to the numbers of the examples.
Structure (SMILES),IC50 [1],IC50 [2]
"CCOc1ccccc1C(C)CC(=O)Nc1sc2c(c1C#N)CCN(C(=O)Cn1cnc(C)c1)C2 (racemic) [Example 136, (RS)—N-{3-Cyano-6-[2-(4-methyl-imidazol-1-yl)-ethanoyl]-4,5,6,7-tetrahydro-thieno[2,3-c]pyridin-2-yl}-3-(2-ethoxy-phenyl)-butyramide]",≥ 10000 nM,300 to 2000 nM
"COc1cccc(CCC(=O)Nc2sc3c(c2C#N)CCN(C(=O)CO)C3)c1 [Example 28, N-[3-Cyano-6-(2-hydroxy-ethanoyl)-4,5,6,7-tetrahydro-thieno[2,3-c]pyridin-2-yl]-3-(3-methoxy-phenyl)-propionamide]",> 100000 nM,300 to 2000 nM
"COc1ccc(C)cc1CCC(=O)Nc1sc2c(c1C#N)CCN(C(=O)Cc1ccccn1)C2 [Example 60, N-[3-Cyano-6-(2-pyridin-2-yl-ethanoyl)-4,5,6,7-tetrahydro-thieno[2,3-c]pyridin-2-yl]-3-(2-methoxy-5-methyl-phenyl)-propionamide]",> 100000 nM,≤ 300 nM
"COc1ccccc1CCC(=O)Nc1sc2c(c1C#N)CCN(C(=O)CC(C)n1ccnc1)C2 (racemic) [Example 56, N-[3-Cyano-6-((RS)-3-imidazol-1-yl-butanoyl)-4,5,6,7-tetrahydro-thieno[2,3-c]pyridin-2-yl]-3-(2-methoxy-phenyl)-propionamide]",≥ 40000 nM,300 to 2000 nM
"CCOc1ccccc1C(C)CC(=O)Nc1sc2c(c1C#N)CCN(C(=O)CCc1nccn1C)C2 (racemic) [Example 114, (RS)—N-{3-Cyano-6-[3-(1-methyl-1H-imidazol-2-yl)-propanoyl]-4,5,6,7-tetrahydro-thieno[2,3-c]pyridin-2-yl}-3-(2-ethoxy-phenyl)-butyramide]",≥ 10000 nM,300 to 2000 nM
"CCOc1ccccc1C(C)CC(=O)Nc1sc2c(c1C#N)CCN(C(=O)Cn1cc(C)nc1C)C2 (racemic) [Example 145, (RS)—N-{3-Cyano-6-[2-(2,4-dimethyl-imidazol-1-yl)-ethanoyl]-4,5,6,7-tetrahydro-thieno[2,3-c]pyridin-2-yl}-3-(2-ethoxy-phenyl)-butyramide]",≥ 10000 nM,≤ 300 nM
"COc1ccccc1CCC(=O)Nc1sc2c(c1C#N)CCN(C(=O)Cn1ccnc1)C2 [Example 84, N-[3-Cyano-6-(2-imidazol-1-yl-ethanoyl)-4,5,6,7-tetrahydro-thieno[2,3-c]pyridin-2-yl]-3-(2-methoxy-phenyl)-propionamide]",≥ 40000 nM,≤ 300 nM
"COc1ccccc1CCC(=O)Nc1sc2c(c1C#N)CCN(C(=O)CCc1nccn1C)C2 [Example 116, N-{3-Cyano-6-[3-(1-methyl-1H-imidazol-2-yl)-propanoyl]-4,5,6,7-tetrahydro-thieno[2,3-c]pyridin-2-yl}-3-(2-methoxy-phenyl)-propionamide]",≥ 10000 nM,≤ 300 nM
"COc1ccc(C)cc1CCC(=O)Nc1sc2c(c1C#N)CCN(C(=O)CCc1cccnc1)C2 [Example 29, N-[3-Cyano-6-(3-pyridin-3-yl-propanoyl)-4,5,6,7-tetrahydro-thieno[2,3-c]pyridin-2-yl]-3-(2-methoxy-5-methyl-phenyl)-propionamide]",> 100000 nM,300 to 2000 nM
"COc1ccccc1CCC(=O)Nc1sc2c(c1C#N)CCN(C(=O)Cn1cc(C)nc1C)C2 [Example 147, N-{3-Cyano-6-[2-(2,4-dimethyl-imidazol-1-yl)-ethanoyl]-4,5,6,7-tetrahydro-thieno[2,3-c]pyridin-2-yl}-3-(2-methoxy-phenyl)-propionamide]",≥ 10000 nM,≤ 300 nM
"COc1ccccc1CCC(=O)Nc1sc2c(c1C#N)CCN(C(=O)CCn1ccnc1)C2 [Example 101, N-[3-Cyano-6-(3-imidazol-1-yl-propanoyl)-4,5,6,7-tetrahydro-thieno[2,3-c]pyridin-2-yl]-3-(2-methoxy-phenyl)-propionamide]",≥ 40000 nM,≤ 300 nM
"COc1cccc(CCC(=O)Nc2sc3c(c2C#N)CCN(C(=O)CCc2ccccn2)C3)c1 [Example 16, N-[3-Cyano-6-(3-pyridin-2-yl-propanoyl)-4,5,6,7-tetrahydro-thieno[2,3-c]pyridin-2-yl]-3-(3-methoxy-phenyl)-propionamide]",> 100000 nM,300 to 2000 nM
"COc1ccc(C)cc1CCC(=O)Nc1sc2c(c1C#N)CCN(C(=O)CCc1ccncn1)C2 [Example 38, N-[3-Cyano-6-(3-pyrimidin-4-yl-propanoyl)-4,5,6,7-tetrahydro-thieno[2,3-c]pyridin-2-yl]-3-(2-methoxy-5-methyl-phenyl)-propionamide]",> 100000 nM,300 to 2000 nM
"CCOc1ccccc1CCC(=O)Nc1sc2c(c1C#N)CCN(C(=O)CCn1cc(C)nc1C)C2 [Example 162, N-{3-Cyano-6-[3-(2,4-dimethyl-imidazol-1-yl)-propanoyl]-4,5,6,7-tetrahydro-thieno[2,3-c]pyridin-2-yl}-3-(2-ethoxy-phenyl)-propionamide]",≥ 10000 nM,300 to 2000 nM
"CCOc1ccccc1C(C)CC(=O)Nc1sc2c(c1C#N)CCN(C(=O)Cn1ccnc1C)C2 (racemic) [Example 128, (RS)—N-{3-Cyano-6-[2-(2-methyl-imidazol-1-yl)-ethanoyl]-4,5,6,7-tetrahydro-thieno[2,3-c]pyridin-2-yl}-3-(2-ethoxy-phenyl)-butyramide]",≥ 10000 nM,≤ 300 nM
"CCOc1ccccc1C(C)CC(=O)Nc1sc2c(c1C#N)CCN(C(=O)CCc1ccccn1)C2 (racemic) [Example 137, (RS)—N-[3-Cyano-6-(3-pyridin-2-yl-propanoyl)-4,5,6,7-tetrahydro-thieno[2,3-c]pyridin-2-yl]-3-(2-ethoxy-phenyl)-butyramide]",≥ 10000 nM,≤ 300 nM
"CCOc1ccccc1CCC(=O)Nc1sc2c(c1C#N)CCN(C(=O)Cc1ccccn1)C2 [Example 26, N-[3-Cyano-6-(2-pyridin-2-yl-ethanoyl)-4,5,6,7-tetrahydro-thieno[2,3-c]pyridin-2-yl]-3-(2-ethoxy-phenyl)-propionamide]",≥ 10000 nM,≤ 300 nM
"CCOc1ccccc1C(C)CC(=O)Nc1sc2c(c1C#N)CCN(C(=O)CCc1ccncc1)C2 (racemic) [Example 121, (RS)—N-[3-Cyano-6-(3-pyridin-4-yl-propanoyl)-4,5,6,7-tetrahydro-thieno[2,3-c]pyridin-2-yl]-3-(2-ethoxy-phenyl)-butyramide]",≥ 10000 nM,300 to 2000 nM
"COc1ccc(C)cc1CCC(=O)Nc1sc2c(c1C#N)CCN(C(=O)CCn1cnc(C)c1)C2 [Example 157, N-{3-Cyano-6-[3-(4-methyl-imidazol-1-yl)-propanoyl]-4,5,6,7-tetrahydro-thieno[2,3-c]pyridin-2-yl}-3-(2-methoxy-5-methyl-phenyl)-propionamide]",≥ 10000 nM,300 to 2000 nM
"CCOc1ccccc1C(C)CC(=O)Nc1sc2c(c1C#N)CCN(C(=O)Cc1ccncc1)C2 (racemic) [Example 71, (RS)—N-[3-Cyano-6-(2-pyridin-4-yl-ethanoyl)-4,5,6,7-tetrahydro-thieno[2,3-c]pyridin-2-yl]-3-(2-ethoxy-phenyl)-butyramide]",> 100000 nM,≤ 300 nM
"CCOc1ccccc1CCC(=O)Nc1sc2c(c1C#N)CCN(C(=O)Cn1ccnc1C)C2 [Example 131, N-{3-Cyano-6-[2-(2-methyl-imidazol-1-yl)-ethanoyl]-4,5,6,7-tetrahydro-thieno[2,3-c]pyridin-2-yl}-3-(2-ethoxy-phenyl)-propionamide]",≥ 40000 nM,≤ 300 nM
"COc1ccc(C)cc1CCC(=O)Nc1sc2c(c1C#N)CCN(C(=O)CCn1ccnc1)C2 [Example 40, N-[3-Cyano-6-(3-imidazol-1-yl-propanoyl)-4,5,6,7-tetrahydro-thieno[2,3-c]pyridin-2-yl]-3-(2-methoxy-5-methyl-phenyl)-propionamide]",≥ 40000 nM,300 to 2000 nM
